# Laboratory results from patent publication US20240294914A1, “COMPOSITIONS AND METHODS FOR TREATING HEPATITIS B VIRUS INFECTION” (priority 2021, published 2024).
# Assays:
# HBV cccDNA [1] = experiment: cccDNA editing in HBV-infected HepG2-NTCP cells (NGS on enriched cccDNA); assay type: cell-based, Hepatitis B virus; details: for improvement in base editing efficiency by lamivudine pretreatment: HepG2-NTCP, 3-day pretreatment (8-day total), BE4 mRNA + gRNAs 37 and 40
# Excerpt: Experiments were completed using guide RNA's listed in Table 1 to identify combinations of guide RNA's effective in treating HBV-infected cells. HepG2-NTCP cells were transfected with mRNA encoding BE4 and a guide RNA(s) selected from gRNA12, gRNA37, gRNA19, gRNA190, and gRNA40. HepG2-NTCP cells are described in Sun, et al. “NTCP-Reconstituted In Vitro HBV Infection System,” Methods Mol. Biol. 1540:1-14 (2017), DOI: 10.1007/978-1-4939-6700-1_1, the disclosure of which is incorporated herein by reference in its entirety for all purposes. Cells were infected at day 0 with HBV and then transfected with the mRNA and gRNA(s) at day 4, see FIG. 6. Measurements of HBsAg, HBeAg, total HBV DNA, and 3.5 kb viral DNA were taken at day 14, see FIG. 6. The guide RNA, gRNA37, targeted HBsAg and gRNA40 targeted the HBV core protein, see FIG. 7. The use of gRNA37 was associated with a reduction in HBsAg levels and the use of gRNA40 was associated with a reduction in HBeAg levels, see FIG. 8. Also, each of gRNA37 and gRNA40 was associated with a lowering of total HBV DNA and 3.5 kb RNA levels.
# (§1) Having identified gRNA37 and gRNA40 as effective gRNAs, the antiviral efficacy of a base editor system containing BE4, gRNA37 and gRNA40 (i.e., multiplexing gRNAs) was evaluated, FIGS. 8-10. It was determined that the base editor system multiplexed with the two gRNAs was associated with a reduction of HBV viral parameters in HepG2-NTCP cells, see FIG. 9. […] For the evaluation of editing of cccDNA, the cccDNA was enriched via Hirt extraction and ExoI/ExoIII nuclease treatment to remove rcDNA (relaxed circular DNA). Throughout the Examples provided herein, editing of cccDNA was evaluated using next generation sequencing completed using cccDNA enriched in this way.
# HepG2-NTCP cells were infected with HBV at day 0, at day 4 an 8-day treatment with lamivudine commenced (which included a 3-day pretreatment period within the 8-day total), at day 7 cells were transfected with mRNA encoding BE4 and gRNAs 37 and 40, and measurements were taken at day 15. […]
# Hepatitis B virus = experiment: Antiviral efficacy in HBV-infected primary human hepatocytes (HBV-PHH): HBsAg, HBeAg, HBV DNA, 3.5 kb RNA, rebound; assay type: cell-based; details: PHH co-culture, transfection at days 4 and 11; lamivudine 8 days then discontinued
# HBV cccDNA [2] = experiment: Base editing of HBV cccDNA in primary human hepatocytes (HBV-PHH); assay type: cell-based, Hepatitis B virus; details: PHH, BE4 + gRNA37 + gRNA40
# Excerpt: Base editor systems comparing guide RNAs evaluated in Example 1 were subsequently tested for anti-viral and editing efficacy using the Hepatitis B virus-primary human hepatocyte (HBV-PHH) system. Cells were transfected with the guide RNAs and mRNAs encoding the base editor as described in Example 1. […] Guide RNAs ABE-133, MSPbeam94, and ABE-85 were associated with a 70-80% reduction of HBV DNA as compared to controls. The guide RNAs PolyA-NGC1 and PolyA-NGC2 were associated with high editing followed by 90% efficacy in reduction of HbeAg.
# as §1
# The design of the experiments is described schematically in FIG. 14. Primary human hepatocyte (PHH) cells were infected with HBV at day 0. At days 4 and 11, the cells were transfected with mRNA encoding BE4 and with gRNA37 and gRNA40. Measurements of HBV DNA were taken over time, and measurements of HBsAg, HBeAG, HBV total DNA, 3.5 kb RNA, and cccDNA editing were taken at day 25. The experiments were carried out using a PHH co-culture system available from PhoenixBio. The PHH co-culture system maintained hepatocyte differentiation and metabolic activity for over 30 days. The HBV infection in the cells was persistent and a cccDNA level was maintained.
# The design of the experiments is described schematically in FIG. 18. Primary human hepatocyte (PHH) cells were infected with HBV at day 0, at day 4 an 8-day. Treatment with lamivudine commenced (which included a 3-day pretreatment period within the 8-day total), and cells were transfected with mRNA encoding BE4 and the gRNAs gRNA37 and gRNA40 at days 7 and 14. HBV DNA levels were measured over time, and additional HBV markers were measured at day 21.
# Primary hepatocytes (PHH) co-cultures infected with HBV were used to test antiviral efficacy of base editing systems. Primary hepatocyte co-culture (PHH) infected with HBV virus is a clinically relevant system for assessing anti-viral activity of base editing systems. The base editing reagents (mRNA encoding a base editor(s) and synthetic gRNA) were transfected via lipofection twice over the course of two weeks. The first transfection was performed about 3, 4, or 7 days after infection (days post infection (dpi)). Not being bound by theory, this 3-to-7-day period ensured that the cccDNA was completely formed at the time of the transfection. The second transfection was at about 7, 10, 11, or 14 days after infection. Extracellular parameters (e.g., HBsAg, HBeAg, and HBV DNA) were monitored over the course of the experiment (including the end of the experiment) and intracellular parameters (HBV DNA, viral RNA, and editing) were measured at the end of the experiment. Cells were lysed at the termination of the experiment (e.g., at 15, 17, 21, or 25 days).
# Transfection details: RNA format, 800 ng total RNA per well in a 24 well plate (600 ng base editor-encoding mRNA+200 ng gRNA) transfected via lipofection (lipofectamin messengerMax, thermofisher Scientific) according to the vendor protocol.
# [3] = system: naturally integrated HBV genome in PLC/PRF/5; experiment: Editing of naturally integrated HBV genome in PLC/PRF/5 cells; assay type: cell-based, Hepatitis B virus; details: BE4 + gRNA
# Excerpt: This editing reduced HBsAg secretion (FIG. 34B).
# HBsAg = details: PLC/PRF/5 cells, BE4 + gRNA, 6th day post-transfection
Compound,improvement in base editing efficiency by lamivudine pretreatment (HBV cccDNA [1]),improvement in base editing efficiency by lamivudine pretreatment (HBV cccDNA [1]; listed as Lamivudine) [%],functional editing by NGS on cccDNA enriched samples in the presence of 3TC (HBV cccDNA [1]; gRNA B+gRNA H with BE4),"HBV rebound (extracellular HBV DNA, qPCR in supernatant) (Hepatitis B virus)",editing in primary hepatocytes with lamivudine pretreatment (HBV cccDNA [2]),editing of the naturally integrated HBV genome [3],extracellular HBsAg (secretion) (HBsAg)
"Nc1ccn([C@@H]2CS[C@H](CO)O2)c(=O)n1 [lamivudine, 2′,3′-dideoxy-3′-thiacytidine 4-Amino-1-[(2R,5S)-2-(hydroxymethyl)-1,3-oxathiolan-5-yl]-1,2-dihydropyrimidin-2-one]",about 20%,20,Higher editing efficiency,rebounded,improved editing,,
"MSPbeam37-PLC: guide RNA with spacer sequence SEQ ID NO. 10834, single nucleobase change relative to MSPbeam37 (guide GAAAGCCCAAGAUGAUGGGA; guide RNA scaffold, chemistry not fully specified)",,,,,,edited,reduced
